In patent publication US6248718A, “Lesion-directed dry dosage forms of antibacterial agents for the treatment of acute mucosal infections of the oral cavity” (priority 1999, dated 2001):
In brackets after ≈: the same amount, converted by molar mass. Several values for one entry are separate records, joined by “and”; a condition that tells them apart may be missing. Equal values may be shown once. Entries after “also recorded” stand apart in the source; their conditions may differ. Where a name gives a salt, the structure may show the parent alone. Read-outs that look alike come from different tables or passages of the source.

How the values were obtained:
[1] = cited from earlier work
[2] = tested on: human salivary microbial flora; experiment: Minimal total inhibition concentration of ciprofloxacin for human salivary microbial flora (Example XI); format: cell-based; conditions: 1 h, aerobic blood agar
Method: (§1) Source of human salivary flora: undiluted saliva freshly collected from the mouth of a healthy adult who had refrained from fluid or food intake for three hours after breakfast prior to saliva collection.
Antibacterial agent: Cipro (a member of the quinolone group) I.V. 200 mg in 20 ml (1%) for intravenous infusion. […] Division Bayer Corporation. Procedure:
1) An aliquot of 1 ml of the Cipro solution, 1%, was added to 1.5 ml to make a total volume of 2.5 ml, equivalent to a 4 mg/ml concentration of the antibacterial agent in saliva.
2) An aliquot of 0.2 ml of the 4 mg/ml Cipro salivary solution was pipetted out for serial double dilutions in saliva in test tubes to the final concentrations of 4, 2, 1, 0.5, 0.25 and 0.12 mg of Cipro per ml, respectively.
3) All tubes containing saliva with different concentrations of Cipro were incubated in 37 degrees Celsius for one hour.
4) At the end of the one-hour incubation, 0.1 ml of the salivary Cipro solution was pipetted from each test tube and inoculated on the surface of a blood agar plate. An aliquot of 0.1 ml saliva sample containing no Cipro was spread on the surface of a blood agar plate as control.
(§2) 5) After 18 hours of incubation in 37 degrees Celsius aerobically, the growth on the blood agar plates was inspected and compared for the presence or absence of bacterial colonies.

[3] = tested on: human salivary microbial flora; experiment: Minimal total inhibition concentration of tetracyclines for human salivary microbial flora (Example X); format: cell-based; conditions: for bacterial growth from treated saliva: 1 h, aerobic blood agar
Method: as §1
Antibacterial agent: Doxycycline cyclate (a tetracycline) for injection USP, equivalent to 100 mg Doxycycline (Fugusawa USA, Inc., Deerfield, IL 60015-2548. Procedure:
1) An adequate amount of saliva was added to the vial of doxycycline to make a total volume of suspension of 3.1 ml, equivalent to a 32 mg/ml concentration of the antibacterial agent.
2) An aliquot of 0.2 ml of the 32 mg/ml doxycycline salivary solution was pipetted out for serial double dilutions in saliva in test tubes to the final concentrations of 32, 16, 8, 4, 2, 1, 0.5, 0.25 and 0.12 mg of doxycycline per ml.
3) All tubes containing saliva with different concentrations of doxycycline were incubated in 37 degrees Celsius for one hour.
4) At the end of the one-hour incubation, 0.1 ml of the salivary doxycycline solution was pipetted from each test tube and inoculated on the surface of a blood agar plate. An aliquot of 0.1 ml saliva sample containing no antibacterial agent was spread on the surface of a blood agar plate as control.
as §2

[4] = cited from earlier work; remark: listed apart in the source
[5] = Topical dry dosage treatment of minor aphthous ulcers, gingivitis and periodontal infections; format: in vivo, human; conditions: 50 mg dry dosage form, four times a day
Description: The administration of the medicament depends upon the type of infection to be treated and the type and dosage of the antibacterial agent used. The appropriate antibacterial agent, dosage and treatment regimen can readily be determined by someone having ordinary skill in this art. […] Thorough tooth cleaning is advised prior to introduction of the medicament to an infected area.

[6] = Local concentration of oxytetracycline hydrochloride in saliva after a 50 mg troche; conditions: for peak concentration locally at the site of the ulcer: assuming troche is dissolved in 0.1 ml of saliva
Description: The final concentrations of oxytetracycline in the control standard nutrient broth were 0.25 mcg/ml, 0.5 mcg/ml, 1.0 mcg/ml, 2.0 mcg/ml, 4.0 mcg/ml, and 8.0 mcg/ml. The final dilutions of saliva sample were 1/50,000, 1/100,000, 1/200,000, 1/400,000, 1/800,000 and 1/1,600,000 for the peak concentration test tubes and 1/4,000. 1/8,000, 1/16,000 and 1/32,000 for the trough concentration test tubes. The Staphylococcus aureus (ATCC 29213) was also used as the standard test microorganism.

[7] = Local concentration of penicillin in saliva after a troche containing 50 mg penicillin G; format: in vivo, human; conditions: assuming troche is dissolved in 0.1 ml of saliva
Method: The local concentration of penicillin in the saliva was determined as follows. […] This loculated pocket of saliva was not swallowed and was not to be diluted with excess saliva from other parts of the mouth for one hour. Two samples were taken for assay to determine the peak and trough local concentrations of penicillin during the one-hour duration of medicinal treatment. At the time when the troche was completely dissolved and one hour later, aliquots of 10 microliters were pipetted from this pocket of saliva solution at the site of medication, representing the peak level and the trough level of antibiotic concentration, and transferred into 10 ml of distilled water to make a 1:1.000 dilution and into 1 ml of distilled water to make a 1:100 dilution, respectively. The diluted saliva antibiotic solutions were passed through a sterile bacteria-filter to remove any bacterial or fungal contaminants of the oral flora.
For determination of the peak concentration, 1 ml of the bacteria-free filtrate was further diluted with 9 ml of nutrient broth to achieve a 1:10,000 dilution of the saliva. Then a serial two-fold dilution was made of this 1:10,000 diluted saliva sample with an equal volume of nutrient broth in a roll of test tubes to obtain a series of 1 ml aliquots of nutrient broth in which the saliva was diluted to 20,000, 40,000, 80,000, 160,000, 320,000, 640,000, 1,280,000 and 2,560,000 folds respectively. […] Thus the final dilutions of the saliva sample were in the range of 40,000 to 5,120,000 folds.
For determining the trough concentration, the entire 1 ml of the 1:100 diluted saliva filtrate was used to make the serial dilutions so that the final dilutions of saliva sample were in the range of 4,000 to 256,000 folds in the final test culture.
As control standards, a series of test tubes containing 1 ml of nutrient broth with varying concentrations of penicillin G potassium salt ranging from 0.1 units to 10 units/ml were similarly mixed with an equal volume of nutrient broth freshly inoculated with the standard tubes of Staphylococcus aureus. Both the test and control standard tubes were incubated at 37° C. for 18 hours. Among the test tubes showing no gross evidence of bacterial growth, the one containing the highest dilution of saliva and the one containing the least amount of penicillin G were considered as having the identical concentration of penicillin, i.e. the MIC of the staphylococcus aureus.

O=C1CCC(N2C(=O)c3ccccc3C2=O)C(=O)N1 (centres unmarked) [Thalidomide]
effectiveness of treatment ([1]; earlier treatments of oral infections / aphthous ulcers): effective in some HIV-infected patients
adverse effect ([1]; literature): teratogenic

O=C(O)c1cn(C2CC2)c2cc(N3CCNCC3)c(F)cc2c1=O [ciprofloxacin]
bacterial growth from treated saliva ([2]; 0.5 mg/ml): A few surviving or uninhibited bacteria grew into colonies
bacterial growth from treated saliva ([2]; 0.5, 0.25 and 0.12 mg/ml): Varying numbers of bacterial colonies were observed
bacterial growth from treated saliva ([2]; 1, 2 and 4 mg/ml): either destroyed or totally inhibited
bacterial growth from treated saliva ([2]; 1, 2 and 4 mg/ml, listed as Cipro): No bacterial colonies were observed

C[C@H]1c2cccc(O)c2C(O)=C2C(=O)[C@]3(O)C(O)=C(C(N)=O)C(=O)[C@@H](N(C)C)[C@@H]3[C@@H](O)[C@@H]21 [doxycycline hyclate]
bacterial growth from treated saliva ([3]; 0.5 mg/ml): A few surviving or uninhibited bacteria grew into colonies
bacterial growth from treated saliva ([3]; 0.5, 0.25 and 0.12 mg/ml): Varying numbers of bacterial colonies were observed
bacterial growth from treated saliva ([3]; 1, 2, 4, 8, 16, 32 mg/ml): No bacterial colonies were observed; also recorded: either destroyed or totally inhibited
MIC ([3]; read-out: minimal total inhibition concentration, human salivary microbial flora): ~1000 µg/mL (≈ 2250 µM)
peak serum level ([4]; intravenous injection of 100 mg): 2.5 µg/mL
peak serum level ([4]; intravenous injection of 200 mg): 2.6 µg/mL
peak serum level ([4]; oral 200 mg, fasting adults): 2.6 to 3 µg/mL
peak serum concentration ([4]; oral ingestion of 100, fasting adults): 1.5 to 2.1 µg/mL
patients with complete relief of pains within about 48 hours [5]: over 90%
time to complete relief of pains [5]: ≤ 48 h

CCCCCCCCCCCCCCCCCC(=O)O [magnesium stearate]
peak concentration locally at the site of the ulcer [6]: 10 mg/mL
initial concentration at the ulcer [7]: 10 mg/mL

CN(C)[C@@H]1C(=O)C(C(N)=O)=C(O)[C@@]2(O)C(=O)C3=C(O)c4c(O)cccc4[C@@](C)(O)[C@H]3[C@H](O)[C@@H]12 [oxytetracycline hydrochloride]
trough concentration in saliva ([6]; 50 mg oxytetracycline hydrochloride troche, one hour, 60 min, hydrochloride): 8 mg/mL
initial peak concentration in saliva ([6]; 50 mg oxytetracycline hydrochloride troche, two subjects, hydrochloride): 800 mg/mL and 400 to 800 mg/mL
peak concentration locally at the site of the ulcer [6]: 400 to 800 mg/mL

CN(C)[C@@H]1C(=O)C(C(N)=O)=C(O)[C@@]2(O)C(=O)C3=C(O)c4c(O)cccc4[C@@](C)(O)[C@H]3C[C@@H]12 [tetracycline HCL]
patients with complete relief of pains within about 48 hours [5]: over 90%
time to complete relief of pains [5]: ≤ 48 h
